Source: ChEMBL document CHEMBL4340551, “Design, synthesis and preliminary bioactivity studies of indomethacin derivatives as Bcl-2/Mcl-1 dual inhibitors” (Bioorg Med Chem, 2019)
pKi: −log10 of the molar value.

Assays:
[1] = target: T1, Apoptosis regulator Bcl-2 (Homo sapiens, UniProt P10415); assay: Inhibition of 5-FAM-tagged Bid-BH3 peptide binding to Bcl2 (unknown origin) by fluorescence polarization assay; settings: for pKi: read-out: Ki
[2] = target: T1, Apoptosis regulator Bcl-2; assay: Potency index, ratio of Ki for WL276 to Ki for test compound for inhibition of 5-FAM-tagged Bid-BH3 peptide binding to Bcl2 (unknown origin) by fluorescence polarization assay
[3] = target: T1, Apoptosis regulator Bcl-2; assay: Potency index, ratio of Ki for UMI77 to Ki for test compound for inhibition of 5-FAM-tagged Bid-BH3 peptide binding to Bcl2 (unknown origin) by fluorescence polarization assay

T1 sequence (P10415 whole entry): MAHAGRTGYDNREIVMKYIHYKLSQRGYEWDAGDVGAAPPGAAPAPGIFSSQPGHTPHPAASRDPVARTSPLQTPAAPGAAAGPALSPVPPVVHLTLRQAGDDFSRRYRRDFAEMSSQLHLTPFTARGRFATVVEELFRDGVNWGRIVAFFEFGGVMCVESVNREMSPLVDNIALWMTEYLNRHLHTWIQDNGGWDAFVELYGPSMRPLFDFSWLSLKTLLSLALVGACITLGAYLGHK

Row | pKi [1] | Ki [1] | Ratio Ki [2] | Ratio Ki [3] | Structure (SMILES)
1 | 5.89 |  |  |  | CCCOc1ccc(C[C@H](NC(=O)Cc2c(C)n(C(=O)c3ccc(Cl)cc3)c3ccc(OC)cc23)C(=O)NS(=O)(=O)c2ccc(Cl)c([N+](=O)[O-])c2)cc1
2 | < 5.30 |  |  |  | COc1ccc(C[C@H](NC(=O)Cc2c(C)n(C(=O)c3ccc(Cl)cc3)c3ccc(OC)cc23)C(=O)NS(=O)(=O)c2ccc(Cl)c([N+](=O)[O-])c2)cc1
3 |  | Not Active |  |  | COc1ccc2c(c1)c(CC(=O)N[C@H](C(=O)NS(=O)(=O)c1ccc(Cl)c([N+](=O)[O-])c1)C(C)C)c(C)n2C(=O)c1ccc(Cl)cc1
4 | < 5.30 |  |  |  | COc1ccc2c(c1)c(CC(=O)N[C@@H](Cc1ccc(OC(C)C)cc1)C(=O)NS(=O)(=O)c1ccc(Cl)c([N+](=O)[O-])c1)c(C)n2C(=O)c1ccc(Cl)cc1
5 | 6.23 |  |  |  | COc1ccc2c(c1)c(CC(=O)N[C@@H](Cc1ccc(Br)cc1)C(=O)NS(=O)(=O)c1ccc(Cl)c([N+](=O)[O-])c1)c(C)n2C(=O)c1ccc(Cl)cc1
6 | < 5.30 |  |  |  | COc1ccc2c(c1)c(CC(=O)N[C@@H](Cc1c[nH]c3ccccc13)C(=O)NS(=O)(=O)c1ccc(Cl)c([N+](=O)[O-])c1)c(C)n2C(=O)c1ccc(Cl)cc1
7 | < 5.30 |  |  |  | COc1ccc(C[C@H](NC(=O)Cc2c(C)n(C(=O)c3ccc(Cl)cc3)c3ccc(OC)cc23)C(=O)NS(=O)(=O)c2ccc(Br)cc2)cc1
8 |  | Not Active |  |  | COc1ccc2c(c1)c(CC(=O)N[C@@H](C)C(=O)NS(=O)(=O)c1ccc(Cl)c([N+](=O)[O-])c1)c(C)n2C(=O)c1ccc(Cl)cc1
9 | 6.25 |  | 2 to 3 | 5 to 6 | COc1ccc2c(c1)c(CC(=O)N[C@@H](Cc1ccc(OCc3ccc(C)cc3)cc1)C(=O)NS(=O)(=O)c1ccc(Cl)c([N+](=O)[O-])c1)c(C)n2C(=O)c1ccc(Cl)cc1
10 | 6.29 |  | 2 to 3 | 5 to 6 | COc1ccc2c(c1)c(CC(=O)N[C@@H](Cc1ccc(OCc3ccc([N+](=O)[O-])cc3)cc1)C(=O)NS(=O)(=O)c1ccc(Cl)c([N+](=O)[O-])c1)c(C)n2C(=O)c1ccc(Cl)cc1
11 |  | Not Active |  |  | COc1ccc2c(c1)c(CC(=O)N[C@@H](Cc1ccccc1)C(=O)NS(=O)(=O)c1ccccc1)c(C)n2C(=O)c1ccc(Cl)cc1
12 | 6.28 |  | 2 to 3 | 5 to 6 | COc1ccc2c(c1)c(CC(=O)N[C@@H](Cc1ccc(OCc3ccccc3)cc1)C(=O)NS(=O)(=O)c1ccc(Cl)c([N+](=O)[O-])c1)c(C)n2C(=O)c1ccc(Cl)cc1
13 | 6.28 |  | 2 to 3 | 5 to 6 | COc1ccc2c(c1)c(CC(=O)N[C@@H](Cc1ccc(OCc3ccccc3)cc1)C(=O)NS(=O)(=O)c1ccc(Br)cc1)c(C)n2C(=O)c1ccc(Cl)cc1
14 | < 5.30 |  |  |  | COc1ccc2c(c1)c(CC(=O)N[C@@H](Cc1ccccc1)C(=O)NS(=O)(=O)c1ccc(Br)cc1)c(C)n2C(=O)c1ccc(Cl)cc1
15 | 6.17 |  | 2 to 3 | 5 to 6 | COc1ccc2c(c1)c(CC(=O)N[C@@H](Cc1ccc(OCc3ccccc3C#N)cc1)C(=O)NS(=O)(=O)c1ccc(Cl)c([N+](=O)[O-])c1)c(C)n2C(=O)c1ccc(Cl)cc1
16 | < 5.30 |  |  |  | COc1ccc2c(c1)c(CC(=O)N[C@@H](CC(C)C)C(=O)NS(=O)(=O)c1ccc(Cl)c([N+](=O)[O-])c1)c(C)n2C(=O)c1ccc(Cl)cc1
17 | 5.31 |  |  |  | CCC(C)[C@H](NC(=O)Cc1c(C)n(C(=O)c2ccc(Cl)cc2)c2ccc(OC)cc12)C(=O)NS(=O)(=O)c1ccc(Cl)c([N+](=O)[O-])c1 (stereo not given in full)
18 | < 5.30 |  |  |  | COc1ccc2c(c1)c(CC(=O)N[C@@H](CCSC)C(=O)NS(=O)(=O)c1ccc(Cl)c([N+](=O)[O-])c1)c(C)n2C(=O)c1ccc(Cl)cc1
19 | < 5.30 |  |  |  | COc1ccc2c(c1)c(CC(=O)N[C@@H](Cc1ccccc1)C(=O)NS(=O)(=O)c1ccc(Cl)c([N+](=O)[O-])c1)c(C)n2C(=O)c1ccc(Cl)cc1
20 |  | Not Active |  |  | COc1ccc2c(c1)c(CC(=O)NCC(=O)NS(=O)(=O)c1ccc(Br)cc1)c(C)n2C(=O)c1ccc(Cl)cc1
